The test addresses hDGAT2 (Homo sapiens (Human), UniProt Q96PD7). The test is described as follows: DGAT2 Enzymatic Activity Assay (triolein formation, LC/MS/MS). Type of test: biochemical. To be noted: Sf-9 membrane prep expressing hDGAT2; 25 μM diolein, 10 μM oleoyl-CoA; room temperature; read-out: IC50 values for inhibition of DGAT2. How it is done: In Vitro DGAT2 ASSAYS and Determination of IC50 Values for DGAT2 Inhibitors
Insect Cell Expression and Membrane Preparation
Sf-9 insect cells were maintained in Grace's insect cell culture medium with 10% heated-inactivated fetal bovine serum, 1% Pluronic F-68 and 0.14 μg/ml Kanamycine sulfate in Erlenmeyer flasks at 28° C. in a shaker incubator. After infection with untagged hDGAT2 baculovirus at multiplicity of infection (MOI) 0.1 for 48 hours, cells were harvested. Cell pellets were suspended in buffer containing 10 mM Tris-HCl (pH 7.5), 1 mM EDTA (pH 8.0), 250 mM sucrose and Complete Protease Inhibitor Cocktail (Roche Diagnostics Corp., Indianapolis, Ill.), and sonicated on ice. Membrane fractions were isolated by ultracentrifugation (100,000× g pellet), resuspended in the same buffer, and frozen (−80° C.) for later use. The protein concentration was determined with the BCA Protein Assay kit (Pierce Biotechnology Inc., Rockford, Ill.). Expression of protein levels was analyzed by immunoblotting with goat polyclonal DGAT2 antibody C-15 and donkey anti-goat IgG HRP (Santa Cruz Biotechnology, Inc., Santa Cruz, Calif.) followed by detection with ECL reagent (GE Healthcare, Piscataway, N.J.).
LC/MS/MS analyses were performed using Thermal Fisher's LX4-TSQ Vantage system. This system consists of an Agilent binary high-performance liquid chromatography (HPLC) pumps and a TSQ Vantage triple quadrupole MS/MS instrument. For each sample, 2 μL samples from the top organic layer of in-plate liquid-liquid extraction were injected onto a Thermo Betabasic C4 column (2.1 mm×20 mm, 5 μm particle size). The samples were then eluted using the following conditions; mobile phase: methanol/water with 0.1% ammonium format=92/8 (v/v), flow rate: 1 mL/min, temperature: 25° C. Data was acquired in positive mode using a heated electrospray ionization (HESI) interface. The operational parameters for the TSQ Vantage MS/MS instrument were a spray voltage of 3000 V, capillary temperature of 280° C., vaporizer temperature 400° C., shealth gas 60 arbitrary unit, Aux gas 40 arbitrary units, S-lens 113 and collision gas 0.16 Pascals. […] (SRM) chromatograms of triolein (Q1: 902.9>Q3:602.3) and internal standard (Q1: 902.9>Q3:602.3) were collected for 40 sec. The peak area was integrated by Xcalibur Quan software. The ratio between the triolein generated in the reaction and spiked in internal standard were used to generate percentage inhibition and IC50 values. Compound percentage inhibition was calculated by the following formula: Inhibition %=1−[(compound response−low control)/(high control−low control)]×100%. Potent compounds were titrated and IC50 were calculated by 4 parameter sigmoidal curve fitting formula.
DGAT2 Enzymatic Activity Assay
DGAT2 activity was determined by measuring the amount of enzymatic product triolein (1,2,3-Tri(cis-9-octadecenoyl)glycerol) using the membrane prep mentioned above. The assay was carried out in deep well 384 plates in a final volume of 40 μL at room temperature. The assay mixture contained the following: assay buffer (100 mM Tris·Cl, pH 7.0, 20 mM MgCl2, 5% ethanol), 25 μM of diolein, 10 μM of oleoyl-CoA and 10 ng/μL of DGAT2 membrane.

What is called IC50 is the concentration that gives 50% inhibition.

Sequence of hDGAT2 (Q96PD7 whole entry): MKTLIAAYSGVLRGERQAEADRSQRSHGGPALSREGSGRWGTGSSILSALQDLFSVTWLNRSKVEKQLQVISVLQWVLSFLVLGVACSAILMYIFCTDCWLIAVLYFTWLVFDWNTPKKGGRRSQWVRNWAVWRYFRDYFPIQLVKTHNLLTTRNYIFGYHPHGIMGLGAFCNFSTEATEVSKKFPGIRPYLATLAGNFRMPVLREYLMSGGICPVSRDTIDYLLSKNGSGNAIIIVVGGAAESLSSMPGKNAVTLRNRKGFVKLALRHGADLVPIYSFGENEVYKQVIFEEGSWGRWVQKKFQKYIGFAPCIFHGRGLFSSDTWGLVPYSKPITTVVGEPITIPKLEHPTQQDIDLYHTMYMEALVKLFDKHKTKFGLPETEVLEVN

Turning to `CC(C)(C)NC(=O)N1CCc2c(-c3cccc(C(F)(F)F)c3)ccc(C(=O)NCc3nccc4ccccc34)c2C1` [Example 19, N^2-(tert-butyl)-N^8-(isoquinolin-1-ylmethyl)-5-(3-(trifluoromethyl)phenyl)-3,4-dihydroisoquinoline-2,8(1H)-dicarboxamide], the IC50 was found to be 197 nM. For the compound `CC(C)(C)NC(=O)N1CCc2c(-c3cccc(C(F)(F)F)c3)ccc(C(=O)NCc3cccc4cccnc34)c2C1` [Example 11], the IC50 came to 67.6 nM.

With `CC(C)(C)NC(=O)N1CCc2c(-c3cccc(C(F)(F)F)c3)ccc(C(=O)NCc3scnc3-c3ccccc3)c2C1` [Example 39, N^2-(tert-butyl)-N^8-((4-phenylthiazol-5-yl)methyl)-5-(3-(trifluoromethyl)phenyl)-3,4-dihydroisoquinoline-2,8(1H)-dicarboxamide], the IC50 worked out at 890 nM.

With `Cc1noc(C)c1CCNC(=O)c1ccc(-c2cccc(C(F)(F)F)c2)c2c1CN(C(=O)NC(C)(C)C)CC2` [Example 50, N^2-(tert-butyl)-N^8-(2-(3,5-dimethylisoxazol-4-yl)ethyl)-5-(3-(trifluoromethyl)phenyl)-3,4-dihydroisoquinoline-2,8(1H)-dicarboxamide], the IC50 turned out to be 1970 nM. The same measure for `CC(CNC(=O)c1ccc(-c2cccc(OC(F)(F)F)c2)c2c1CN(C(=O)NC(C)(C)C)CC2)c1cccnc1` (stereo not shown) [Example 78, N^2-(tert-butyl)-N^8-(2-(pyridin-3-yl)propyl)-5-(3-(trifluoromethoxy)phenyl)-3,4-dihydroisoquinoline-2,8(1H)-dicarboxamide]: 1180 nM; for `COc1cccc(-c2ccc(CNC(=O)c3cc(C(F)(F)F)n[nH]3)c3c2CCN(C(=O)NC(C)(C)C)C3)c1` [Example 4, N-(tert-butyl)-5-(3-methoxyphenyl)-8-((3-(trifluoromethyl)-1H-pyrazole-5-carboxamido)methyl)-3,4-dihydroisoquinoline-2(1H)-carboxamide]: 41.4 nM. The same measure for `Cc1nc(C)c(CNC(=O)c2ccc(-c3cccc(C(F)(F)F)c3)c3c2CN(C(=O)NC(C)(C)C)CC3)s1` [Example 41, N^2-(tert-butyl)-N^8-((2,4-dimethylthiazol-5-yl)methyl)-5-(3-(trifluoromethyl)phenyl)-3,4-dihydroisoquinoline-2,8(1H)-dicarboxamide]: 907 nM; for `CC(C)(C)NC(=O)N1CCc2c(-c3cccc(C(F)(F)F)c3)ccc(C(=O)NCCc3cn4ccccc4n3)c2C1` [Example 23, N^2-(tert-butyl)-N^8-(2-(imidazo[1,2-a]pyridin-2-yl)ethyl)-5-(3-(trifluoromethyl)phenyl)-3,4-dihydroisoquinoline-2,8(1H)-dicarboxamide]: 244 nM; for `CC(C)(C)NC(=O)N1CCc2c(-c3cccc(C(F)(F)F)c3)ccc(C(=O)NCc3nccc4cccnc34)c2C1` [Example 24, N^8-((1,7-naphthyridin-8-yl)methyl)-N^2-(tert-butyl)-5-(3-(trifluoromethyl)phenyl)-3,4-dihydroisoquinoline-2,8(1H)-dicarboxamide]: 265 nM. The same measure for `CC(C)(C)NC(=O)N1CCc2c(-c3cccc(C(F)(F)F)c3)ccc(C(=O)NCCc3nc4ccccc4[nH]3)c2C1` [Example 9, N^8-(2-(1H-benzo[d]imidazol-2-yl)ethyl)-N^2-(tert-butyl)-5-(3-(trifluoromethyl)phenyl)-3,4-dihydroisoquinoline-2,8(1H)-dicarboxamide]: 51.1 nM. In the case of `CC(C)(C)NC(=O)N1CCc2c(-c3cccc(C(F)(F)F)c3)ccc(C(=O)NCCn3nnc4ccccc43)c2C1` [Example 34, N^8-(2-(1H-benzo[d][1,2,3]triazol-1-yl)ethyl)-N^2-(tert-butyl)-5-(3-(trifluoromethyl)phenyl)-3,4-dihydroisoquinoline-2,8(1H)-dicarboxamide], the IC50 is 664 nM. As to `CC(C)(C)NC(=O)N1CCc2c(-c3cccc(OC(F)(F)F)c3)ccc(C(=O)NCc3cnn4ccccc34)c2C1` [Example 81, N^2-(tert-butyl)-N^8-(pyrazolo[1,5-a]pyridin-3-ylmethyl)-5-(3-(trifluoromethoxy)phenyl)-3,4-dihydroisoquinoline-2,8(1H)-dicarboxamide], the IC50 was 370 nM. The same measure for `CC(C)(C)NC(=O)N1CCc2c(-c3cccc(C(F)(F)F)c3)ccc(C(=O)NCCc3cnc4ccccn34)c2C1` [Example 54, N^2-(tert-butyl)-N^8-(2-(imidazo[1,2-a]pyridin-3-yl)ethyl)-5-(3-(trifluoromethyl)phenyl)-3,4-dihydroisoquinoline-2,8(1H)-dicarboxamide]: 3720 nM; for `CC(C)(C)NC(=O)N1CCc2c(-c3cccc(C(F)(F)F)c3)ccc(C(=O)NCc3cnn4ccccc34)c2C1` [Example 30, N^2-(tert-butyl)-N^8-(pyrazolo[1,5-a]pyridin-3-ylmethyl)-5-(3-(trifluoromethyl)phenyl)-3,4-dihydroisoquinoline-2,8(1H)-dicarboxamide]: 351 nM. On to `CC(C)(C)NC(=O)N1CCc2c(-c3cccc(C(F)(F)F)c3)ccc(C(=O)NCc3n[nH]c4c3CCC4)c2C1` [Example 35, N^2-(tert-butyl)-N^8-((1,4,5,6-tetrahydrocyclopenta[c]pyrazol-3-yl)methyl)-5-(3-(trifluoromethyl)phenyl)-3,4-dihydroisoquinoline-2,8(1H)-dicarboxamide], for which the IC50 worked out at 727 nM. In the case of `CC(C)(C)NC(=O)N1CCc2c(-c3cccc(C(F)(F)F)c3)ccc(C(=O)NCCn3nncc3-c3ccccc3)c2C1` [Example 37, N^2-(tert-butyl)-N^8-(2-(5-phenyl-1H-1,2,3-triazol-1-yl)ethyl)-5-(3-(trifluoromethyl)phenyl)-3,4-dihydroisoquinoline-2,8(1H)-dicarboxamide], the IC50 is 739 nM. On to `CC(C)(C)NC(=O)N1CCc2c(-c3cccc(C(F)(F)F)c3)ccc(C(=O)NC[C@H]3C[C@@H]3c3ccccc3)c2C1` (relative stereo) [Example 69, N^2-(tert-butyl)-N^8-(((trans)-2-phenylcyclopropyl)methyl)-5-(3-(trifluoromethyl)phenyl)-3,4-dihydroisoquinoline-2,8(1H)-dicarboxamide], for which the IC50 came to 528 nM. The same measure for `CC(NC(=O)c1ccc(-c2cccc(C(F)(F)F)c2)c2c1CN(C(=O)NC(C)(C)C)CC2)c1nncs1` (stereo not shown) [Example 72, N^8-(1-(1,3,4-thiadiazol-2-yl)ethyl)-N^2-(tert-butyl)-5-(3-(trifluoromethyl)phenyl)-3,4-dihydroisoquinoline-2,8(1H)-dicarboxamide]: 659 nM. The same measure for `CC(C)(C)NC(=O)N1CCc2c(-c3cccc(OC(F)(F)F)c3)ccc(C(=O)NCc3nnc4n3CCC4)c2C1` [Example 75, N^2-(tert-butyl)-N^8-((6,7-dihydro-5H-pyrrolo[2,1-c][1,2,4]triazol-3-yl)methyl)-5-(3-(trifluoromethoxy)phenyl)-3,4-dihydroisoquinoline-2,8(1H)-dicarboxamide]: 2490 nM.

`CC(C)(C)NC(=O)N1CCc2c(-c3cccc(C(F)(F)F)c3)ccc(C(=O)NCc3cccc4ncccc34)c2C1` [Example 16, N^2-(tert-butyl)-N^8-(quinolin-5-ylmethyl)-5-(3-(trifluoromethyl)phenyl)-3,4-dihydroisoquinoline-2,8(1H)-dicarboxamide]: the IC50 was 126 nM. The same measure for `CC(C)(C)NC(=O)N1CCc2c(-c3cccc(C(F)(F)F)c3)ccc(C(=O)NCc3cncc4ccccc34)c2C1` [Example 10, N^2-(tert-butyl)-N^8-(isoquinolin-4-ylmethyl)-5-(3-(trifluoromethyl)phenyl)-3,4-dihydroisoquinoline-2,8(1H)-dicarboxamide]: 66.9 nM; for `CC(C)(C)NC(=O)N1CCc2c(-c3cccc(OC(F)(F)F)c3)ccc(C(=O)NCc3nccc4ccccc34)c2C1` [Example 22, N^2-(tert-butyl)-N^8-(isoquinolin-1-ylmethyl)-5-(3-(trifluoromethoxy)phenyl)-3,4-dihydroisoquinoline-2,8(1H)-dicarboxamide]: 235 nM.
